Measurements taken from patent US4399274A, “Isolation of non-ionic lipophilic materials on macroreticular polymeric absorbents” (priority 1981, dated 1983).

Assay: Partition of avermectins between aqueous acetone and Duolite ES-863 resin (HPLC of supernatant before and after equilibration)
[1] = 21.4% acetone (vol), 4 ml supernatant, 1 g ES-863 resin, equilibrated for an hour
[2] = 23.1% acetone (vol), 4 ml supernatant, 1 g ES-863 resin, equilibrated for an hour
[3] = 25.0% acetone (vol), 4 ml supernatant, 1 g ES-863 resin, equilibrated for an hour
[4] = 27.3% acetone (vol), 4 ml supernatant, 1 g ES-863 resin, equilibrated for an hour
[5] = 37.5% acetone (vol), 4 ml supernatant, 1 g ES-863 resin, equilibrated for an hour
[6] = 42.9% acetone (vol), 4 ml supernatant, 1 g ES-863 resin, equilibrated for an hour
[7] = 50.0% acetone (vol), 4 ml supernatant, 1 g ES-863 resin, equilibrated for an hour
[8] = 60.0% acetone (vol), 4 ml supernatant, 1 g ES-863 resin, equilibrated for an hour
[9] = 68.0% acetone, ES-863 resin, similar procedures
[10] = 73.3% acetone, ES-863 resin, similar procedures
[11] = 77.1% acetone, ES-863 resin, similar procedures
[12] = 80.0% acetone, ES-863 resin, similar procedures
[13] = 82.2% acetone, ES-863 resin, similar procedures

Protocol: After standing overnight they were centrifuged and 4 ml of each supernatant was transferred to tubes containing 1 g each of purified ES-863 resin. An aliquot was also taken for HPLC assay.
The samples containing the resin were equilibrated for an hour, then centrifuged. The supernatants were assayed by HPLC. A comparison of the assays before and after equilibration represent the partition between the solvent and the adsorbent.

| Structure (SMILES) | % Remaining in Solution [1] [%] | % Remaining in Solution [2] [%] | % Remaining in Solution [3] [%] | % Remaining in Solution [4] [%] | % Remaining in Solution [5] [%] | % Remaining in Solution [6] [%] | % Remaining in Solution [7] [%] | % Remaining in Solution [8] [%] | % Remaining in Solution [9] [%] | % Remaining in Solution [10] [%] | % Remaining in Solution [11] [%] | % Remaining in Solution [12] [%] | % Remaining in Solution [13] [%] |
| --- | --- | --- | --- | --- | --- | --- | --- | --- | --- | --- | --- | --- | --- |
| COC1CC(OC2C(C)OC(OC3C(C)=CCC4CC(CC5(C=CC(C)C(C(C)C)O5)O4)OC(=O)C4C=C(C)C(OC)C5OCC(=CC=CC3C)C45O)CC2OC)OC(C)C1O (stereo not drawn) [A1b] | 4.56 | 4.85 | 5.63 | 6.42 | 3.18 | 3.13 | 2.42 | 1.69 | 10.6 | 68.1 | 111 | 145 | 79.0 |
| CCC(C)C1OC2(C=CC1C)CC1CC(CC=C(C)C(OC3CC(OC)C(OC4CC(OC)C(O)C(C)O4)C(C)O3)C(C)C=CC=C3COC4C(OC)C(C)=CC(C(=O)O1)C34O)O2 (stereo not drawn) [A1a] | 4.40 | 6.75 | 7.09 | 8.42 | 3.60 | 4.39 | 3.03 | 2.10 | 5.68 | 19.7 | 36.2 | 51.5 | 136 |
| CCC(C)C1OC2(CC3CC(CC=C(C)C(OC4CC(OC)C(OC5CC(OC)C(O)C(C)O5)C(C)O4)C(C)C=CC=C4COC5C(OC)C(C)=CC(C(=O)O3)C45O)O2)CC(O)C1C (stereo not drawn) [A2a] | 5.36 | 6.54 | 7.86 | 6.99 | 4.19 | 3.76 | 2.12 | 2.72 | 15.2 | 42.1 | 65.7 | 86.7 | 110 |
| CCC(C)C1OC2(CC3CC(CC=C(C)C(OC4CC(OC)C(OC5CC(OC)C(O)C(C)O5)C(C)O4)C(C)C=CC=C4COC5C(O)C(C)=CC(C(=O)O3)C45O)O2)CC(O)C1C (stereo not drawn) [B2a] | 5.10 | 6.09 | 7.29 | 5.37 | 3.21 | 2.65 | 1.36 | 4.95 | 27.8 | 60.4 | 82.1 | 99.8 | 165 |
| COC1CC(OC2C(C)OC(OC3C(C)=CCC4CC(CC5(CC(O)C(C)C(C(C)C)O5)O4)OC(=O)C4C=C(C)C(O)C5OCC(=CC=CC3C)C45O)CC2OC)OC(C)C1O (stereo not drawn) [B2b] | < 2 | 4.80 | 5.08 | 2.34 | < 3 | 3.89 | 4.35 | 33.3 |  |  |  |  | 135 |
| COC1CC(OC2C(C)OC(OC3C(C)=CCC4CC(CC5(CC(O)C(C)C(C(C)C)O5)O4)OC(=O)C4C=C(C)C(OC)C5OCC(=CC=CC3C)C45O)CC2OC)OC(C)C1O (stereo not drawn) [A2b] | 2.75 | 3.89 | 5.38 | 3.73 | 2.70 | 1.71 | 0.57 | 0.3 | 26.8 | 64.8 | 94.4 | 117 | 128 |
| COC1CC(OC2C(C)OC(OC3C(C)=CCC4CC(CC5(C=CC(C)C(C(C)C)O5)O4)OC(=O)C4C=C(C)C(O)C5OCC(=CC=CC3C)C45O)CC2OC)OC(C)C1O (stereo not drawn) [B1b] | 3.73 | 5.03 | 6.32 | 4.55 | 2.59 | 2.13 | 0.90 | 1.53 | 20.4 | 5.15 | 73.8 | 94.2 | 123 |
